Article PMC9447362
Where two headings read alike, the source gives them in different places.

Assays:
SARS-CoV-2 [1] = assay type: cell-based, SARS-CoV-2 (BetaCoV/Beijing/IME-BJ05-2020); details: for protein levels of nucleoprotein, Calu-3 cells: western blotting
P4 G4 (P4-WT RNA) = assay: CD spectra and CD melting of P4-WT with G4-specific ligands; assay type: binding, SARS-CoV-2
Procedure: For CD spectra and CD melting experiments, the DNA or RNA oligonucleotide samples pre-heated at 95 °C for 10 min were slowly cooled to room temperature, and then were incubated at 4 °C for 24 h. The samples were detected by JASCO J-810 spectropolarimeter equipped with a temperature-controlled water bath. In CD melting experiments, versus temperatures were collected at a heating rate of 1 °C/min.

P4 G4 [2] = assay: Protein expression from pCAG-Flag vector with P4-WT or P4-Mut in HeLa and HEK293T cells (western blotting); assay type: cell-based, SARS-CoV-2; details: concentration-dependent
P4 G4 [3] = assay type: cell-based, SARS-CoV-2; details: 10 μM TMPyP4 or 2.5 μM PDP
SARS-CoV-2 [4] = assay: microbe, parasite or virus in culture; assay type: cell-based; details: for protein levels of nucleoprotein, Vero E6 cells: western blotting; for EC50: read-out: EC50 (half-maximal effective doses), antiviral; for EC90: read-out: EC90 (90% maximal effective doses), antiviral
RNA with P4 G4 = assay: Cell-based RNA replication assays with SARS-CoV-2 RdRp (nsp12, nsp7, nsp8) in HEK293T cells, qRT-PCR; details: compared with P4-Mut, dose-dependent
Excerpt: Cell-based RNA replication assay system was applied[43]–[45]. The plasmids nsp12, nsp7 and nsp8 were used to express codon-optimized Flag-nsp12, Flag-nsp7 and Flag-nsp8, respectively, all of which contain a Flag tag at the C-terminus. To generate the SARS-CoV-2 transcripts with P4 G4 site for RNA replication assays, 5’ untranslated region (UTR)-P4 G4 -3’ UTR was first synthesized, then inserted into the pGEM-T esay vector. And the SARS-CoV-2 RNA with P4 G4 site was produced using T7 RNA polymerases from a standard in vitro transcription kit.
HEK293T cells were transfected with the RNA with P4 G4 site, nsp12, nsp7, and nsp8 plasmids at the ratio of 1:10:30:30. At 12 h post transfection, cells were re-seeded in 24-well plates (4 × 10^4/well) and treated with PDP or TMPyP4. After 48 h incubation, cells were collected and measured for RNA levels by qRT-PCR assays.

P4 G4 [5] = assay: In vitro translation (IVT) assays; assay type: biochemical, SARS-CoV-2
in vitro = details: African green monkey
Vero E6 cells [6] = details: African green monkey
P2 G4 = assay type: cell-based, SARS-CoV-2; details: 10 μM, HEK293T cells
[7] = cited from earlier work
[8] = hamster plasma, 30 mg/kg i.n., single dose
Vero E6 cells [9] = assay: Cell viability, SRB assays; details: Vero E6 cells, SRB assays
P1 = assay type: cell-based, SARS-CoV-2; details: 10 μM, HEK293T cells
SARS-CoV-2 [10] = details: mouse, in vivo
SARS-CoV-2 [11] = assay: In vivo antiviral studies in SARS-CoV-2-infected Syrian hamsters
Procedure: The in vivo antiviral studies were carried out in an ABSL3 facility in Changchun
Veterinary Research Institute, Chinese Academy of Agricultural Sciences. All animal
studies were performed in strict accordance with the guidelines set by the Chinese
Regulations of Laboratory Animals and Laboratory Animal-Requirements of
Environment and Housing Facilities. All animals used in this study were chosen
antiviral in SARS-CoV-2 infection. First, we use a model of Syrian hamsters; and
second, we used a model of human angiotensin-converting enzyme 2 (hACE2)-KI/IOZ
10) or saline (n = 5) 1 h prior to infection. Then the hamsters were anesthetized and
infected intranasally with 105 TCID50 of SARS-CoV-2. For the low challenge dose
For the high challenge dose
The conditions of hamsters
including body weight were monitored daily until sacrifice. 3 days post infection (dpi),
the hamsters were humanely euthanized. The nasal wash, nasal tissues and lung tissues
were harvested for viral titration and pathological examination. Briefly, the nasal
tissues and lung tissues were weighed, and 1 gram of each tissue was placed into 1
mL of PBS containing 100 U/mL penicillin, making 10% weight/volume
homogenates. The tissue samples were homogenized by Tissue Lyser (QIAGEN,
Germany) and centrifuged at 8,000 rpm. The supernatants were then collected and
inoculated into Vero E6 cells, and viral RNA copy numbers and viral titration were
determined by qRT-PCR and TCID50, respectively. Meanwhile, the lungs were fixed
in formalin, and the fixed tissues were embedded in paraffin and stained with H&E
for pathological examination.
therapeutic treatment in vivo, the hamsters were pre-infected with the virus (105
intraperitoneal, i.p., 15 mg/kg)) 1 h prior to infection. Then the hamsters were
anesthetized and infected intranasally with 105 TCID50 of SARS-CoV-2. The conditions
of hamsters including body weight were monitored daily until sacrifice. 3 dpi, the
hamsters were humanely euthanized. The nasal wash, nasal tissues and lung tissues
were harvested for viral titration and pathological examination.
Lung histological analysis
Lung histological analysis was examined by an experienced pathologist. H&E stained
sections of lung from hamsters and mice were examined by implementing a semi
quantitative, 5 point grading scheme (0-within normal limits, 1-mild, 2-moderate,

[12] = 30 mg/kg i.n. once daily for 7 consecutive days
P3 G4 = assay type: cell-based, SARS-CoV-2; details: 10 μM, HEK293T cells
P13 G4 = assay: RNA replication assay, RNA with P13 G4 in HEK293T cells; assay type: cell-based, SARS-CoV-2
P6 G4 = assay type: cell-based, SARS-CoV-2; details: 10 μM, HEK293T cells
P14 G4 = assay: RNA replication assay, RNA with P14 G4 in HEK293T cells; assay type: cell-based, SARS-CoV-2
[13] = Cell viability, SRB assays; details: African green monkey
[14] = Severe acute respiratory syndrome coronavirus 2, Vero C1008, Vero E6 cells, 10^3 TCID50 virus/mL, 72 h post infection, viral RNA copies/mL
[15] = dose-dependent, 72 h post infection
[16] = hamster, 15 mg/kg i.p., day 3 after infection

C[n+]1ccccc1-c1c2nc(c(-c3cccc[n+]3C)c3ccc([nH]3)c(-c3cccc[n+]3C)c3ccc([nH]3)c(-c3cccc[n+]3C)c3nc1C=C3)C=C2 [TMPyP2]
protein levels of nucleoprotein, Calu-3 cells (SARS-CoV-2 [1]; 100 μM): not TMPyP2
effect on the thermal stability of P4 G4 (P4 G4 (P4-WT RNA)): no effects on the thermal stability
protein levels of P4-WT (P4 G4 [2]): no effects
P4-WT EGFP fluorescence intensity (P4 G4 [3]): no effects
protein levels of nucleoprotein, Vero E6 cells (SARS-CoV-2 [4]; 100 μM): not TMPyP2
replication of P4-WT RNA (RNA with P4 G4): no effects

NCCOc1cc(C(=O)Nc2cc(OCCN3CCCC3)c3ccccc3n2)nc(C(=O)Nc2cc(OCCN3CCCC3)c3ccccc3n2)c1 [PDP]
effect on the thermal stability of P4 G4 (P4 G4 (P4-WT RNA)): significantly enhanced the thermal stability
protein levels of P4-WT (P4 G4 [2]): decreased the protein levels of P4-WT
IVT of P4-WT (P4 G4 [5]; P4-WT): inhibited the IVT of P4-WT
P4-WT EGFP fluorescence intensity (P4 G4 [3]): inhibited the P4-WT EGFP fluorescence intensity
P4-Mut EGFP fluorescence intensity (P4 G4 [3]): not P4-Mut
SI (selectivity index) (SARS-CoV-2 [4]): 7.78
EC50 (SARS-CoV-2 [4]; [14]): 0.63 µM
EC90 (SARS-CoV-2 [4]; [14]): > 2 µM
viral RNA copies and viral titers in Vero E6 cells (SARS-CoV-2 [4]; [15]): significantly reduced viral RNA copies and viral titers
CC50 (in vitro): 4.9 µM
replication of P4-WT RNA (RNA with P4 G4): significantly inhibit the replication of P4-WT
CC10 (10% cytotoxic concentration) (Vero E6 cells [6]): 2.84 µM

C[n+]1ccc(-c2c3nc(c(-c4cc[n+](C)cc4)c4ccc([nH]4)c(-c4cc[n+](C)cc4)c4nc(c(-c5cc[n+](C)cc5)c5ccc2[nH]5)C=C4)C=C3)cc1 [TMPyP4, 5,10,15,20-tetrakis-(N-methyl-4-pyridyl)porphine]
EGFP expression, P2-EGFP (P2 G4): inhibited EGFP expression
protein levels of nucleoprotein, Calu-3 cells (SARS-CoV-2 [1]; 100 μM): significantly suppress the protein levels of nucleoprotein
mRNA expression of pro-inflammatory cytokines and chemokines (SARS-CoV-2 [1]; Calu-3 cells, 100 μM, qRT-PCR): decrease the mRNA expression of pro-inflammatory cytokines and chemokines
virus infection in Calu-3 cells (SARS-CoV-2 [1]; human lung epithelial Calu-3 cells): inhibited virus infection efficiently
toxicity in the animals for short-term treatment [7]: no noticeable toxicity
Cmax [8]: 17880 ng/mL
area under the curve (AUC) [8]: 167.32 h⋅μg/mL
half-life (T1/2) [8]: 6.36 h
effect on the thermal stability of P4 G4 (P4 G4 (P4-WT RNA)): significantly enhanced the thermal stability
CC10 (10% cytotoxic concentration) (Vero E6 cells [9]): 727.7 µM
CC50 (Vero E6 cells [9]; read-out: CC50 (half-cytotoxic concentration)): > 1000 µM
EGFP expression, P1-EGFP (P1): not P1
viral loads in the nasal turbinate and lung tissues (SARS-CoV-2 [10]): significantly decreased the viral loads in the nasal turbinate and lung tissues
antiviral synergy with remdesivir in hamsters (SARS-CoV-2 [11]; TMPyP4 15 mg/kg i.n. combined with remdesivir 15 mg/kg i.p.): did not exhibit antiviral synergy with remdesivir in hamsters
decrease of mean viral loads (viral RNA copies/mL and TCID50/mL) in nasal wash, nasal turbinate and lung tissues (SARS-CoV-2 [11]; hamster, in vivo): 2–4 log10
lung damage (histopathology) (SARS-CoV-2 [11]; hamster, in vivo): significantly ameliorate lung damage
mRNA expression of inflammatory-associated genes in the lungs (SARS-CoV-2 [11]; hamster, in vivo): reduced mRNA expression of inflammatory-associated genes in the lungs
maximal viral RNA copies reduction in the nasal wash, nasal turbinate and lung tissues (SARS-CoV-2 [11]; hamster, in vivo, 15 mg/kg): ~ 3 log10
viral titers reduction in the nasal wash, nasal turbinate and lung tissues (SARS-CoV-2 [11]; hamster, in vivo, 15 mg/kg): ~ 3.5 log10
lung damage, therapeutic treatment (SARS-CoV-2 [11]; hamster, in vivo, 30 mg/kg): could ameliorate lung damage
viral loads in nasal wash, nasal turbinate and lung tissues, therapeutic treatment (SARS-CoV-2 [11]; hamster, in vivo, 30 mg/kg): significantly decreased the viral loads
toxicity in hamsters [12]: no noticeable toxicity in the hamsters
toxicity in the lung tissues of hamsters [12]: no noticeable toxicity in the lung tissues of hamsters
protein levels of P4-WT (P4 G4 [2]): decreased the protein levels of P4-WT
IVT of P4-WT (P4 G4 [5]): inhibited the IVT of P4-WT
EGFP expression, P3-EGFP (P3 G4): inhibited EGFP expression
RNA replication, RNA with P13 G4 (P13 G4): suppressed RNA replication
P4-WT EGFP fluorescence intensity (P4 G4 [3]): inhibited the P4-WT EGFP fluorescence intensity
P4-Mut EGFP fluorescence intensity (P4 G4 [3]): not P4-Mut
SI (selectivity index) (SARS-CoV-2 [4]): > 112.74
antiviral activity of TMPyP4 after pre-transfection of ASOs targeting viral G4s (SARS-CoV-2 [4]): significantly inhibited by ASO targeting viral G4s
maximal viral RNA copies reduction in the Vero E6 cell culture supernatant (SARS-CoV-2 [4]): ~ 7 log10
maximal viral RNA copies reduction in the Vero E6 cell lysate (SARS-CoV-2 [4]): ~ 6 log10
maximal viral titers reduction in the culture supernatant of Vero E6 cell (SARS-CoV-2 [4]): ~ 6 log10
viral RNA copies and viral titers in Vero E6 cells (SARS-CoV-2 [4]): significantly reduced viral RNA copies and viral titers
viral loads in Vero E6 cells pre-infected with SARS-CoV-2 (SARS-CoV-2 [4]): significantly decreased the viral loads
protein levels of nucleoprotein, Vero E6 cells (SARS-CoV-2 [4]; 100 μM): significantly suppress the protein levels of nucleoprotein
time-of-addition: stage of action (SARS-CoV-2 [4]; Vero E6 cells, 100 μM): functioned at a stage post SARS-CoV-2 entry
antiviral synergy with remdesivir in vitro (SARS-CoV-2 [4]; combination of TMPyP4 and remdesivir): did not exhibit antiviral synergy
EC50 (SARS-CoV-2 [4]): 8.87 µM
EC90 (SARS-CoV-2 [4]): 13.2 µM
EGFP expression, P6-EGFP (P6 G4): inhibited EGFP expression
RNA replication, RNA with P14 G4 (P14 G4): suppressed RNA replication
replication of P4-WT RNA (RNA with P4 G4): significantly inhibit the replication of P4-WT

CCC(CC)COC(=O)[C@H](C)N[P@](=O)(OC[C@H]1O[C@@](C#N)(c2ccc3c(N)ncnn23)[C@H](O)[C@@H]1O)Oc1ccccc1 [remdesivir]
CC50 [13]: > 100 µM
CC10 (10% cytotoxic concentration) (Vero E6 cells [9]): 1.04 µM
maximal viral RNA copies reduction in the nasal wash, nasal turbinate and lung tissues (SARS-CoV-2 [11]; [16]): 1 log10
viral titers reduction in the nasal wash, nasal turbinate and lung tissues (SARS-CoV-2 [11]; [16]): ~ 1.5 log10
maximal viral titers reduction in the culture supernatant of Vero E6 cell (SARS-CoV-2 [4]; 72 h post infection, TCID50): ~ 3 log10
maximal viral RNA copies reduction in the Vero E6 cell culture supernatant (SARS-CoV-2 [4]; 72 h post infection, qRT-PCR): ~ 4 log10
maximal viral RNA copies reduction in the Vero E6 cell lysate (SARS-CoV-2 [4]; 72 h post infection, qRT-PCR): 3 log10
EC50 (SARS-CoV-2 [4]; [14]): 1.33 µM
EC90 (SARS-CoV-2 [4]; [14]): 2.42 µM
SI (selectivity index) (SARS-CoV-2 [4]; Vero E6 cells, CC50/EC50): > 75.19
viral RNA copies and viral titers in Vero E6 cells (SARS-CoV-2 [4]; [15]): significantly reduced viral RNA copies and viral titers
